Reference: patent US5869456A, “Use of glutathione diesters” (priority 1995, dated 1999)
Like-named read-outs stand apart in the source and are kept apart here.

Tests used:
mice [1] = conditions: earlier evidence / earlier patents; cited from earlier work
Human Erythrocytes [2] = conditions: whole blood + one-half volume 120 mM thiol, 30 minutes, 37° C.
Description: (§1) Derivatization of Cell Thiols for HPLC Analysis. Derivatization mixtures are as follows: Erythrocyte Lysates: 155 μl 50 mM DTPA (pH 7), 110 μl 3.33% SSA, total 180 μl cell supernatant plus "RBC Mix", 10 μl 0.1M mBBr (in CH3 CN), 100 μl of 2M Tris·HCl (pH 9 at room temperature). The samples were placed in the dark for 20-30 minutes at room temperature; the reaction was quenched with 90 μl of glacial acetic acid. Reduced Erythocyte Lysates. 155 μl mM DTT in 50 mM DTPA (pH 7), SSA, sample, and "RBC Mix" as above Tris was added and the samples were agitated at room temperature for 25 min. 20 μl Tris and 10 μl mBBr were added; the derivatization proceeds as above.
(§2) HPLC Analysis of Cellular Thiols. Samples were chromatographed on an Altex Ultrasphere ODS reverse phase column (5μ; 4.6 mm×25 cm), using one of three gradients: (1) Buffer A: 12.8% MeOH, 0.25% acetic acid, 87.75% H2 O, pH 3.9. (2) Buffer B: 90.0% MeOH, 0.25% acetic acid, 9.75% H2 O (no pH Adjustment). (3) Gradient 1: Initial, 100% A, linear gradient to 50% B at 25 min., linear gradient to 100% B at 35 min., wash with 100% B to 39.5 min.; step to 100% A at 40 min.; equilibration with 100% A to 48 min. Gradient 2: Initial, 100% A, linear gradient to 75% B at 25 min., remainder identical to Gradient 1. Gradient 3: Initial, 100% A, linear gradient to 65% A, 35% B at 25 minutes, remainder identical to gradient 1. Flow rates were 1 ml/min.
Whole blood (see Table 1) was mixed with one-half volume of 120 mM GSH, GSH-ME, or GSH-DE at pH 7. The samples were incubated for 30 minutes at 37° C. and then centrifuged. After removal of plasma and buffy coat, the erythrocytes were washed and processed as described in Table 1.

[3] = test system: GSH diester α-esterase activity, guinea pig plasma
mice [4] = conditions: given to mice, present studies
[5] = test system: esterase activity, rat blood plasma
hamsters = conditions: given to hamsters, present studies
[6] = test system: GSH diester α-esterase activity, human blood plasma
[7] = test system: Hamsters (liver, kidney, blood plasma); test: Thiol levels in hamsters treated with GSH esters; format: in vivo, Syrian hamster
Description: Plasma Samples: 190 μl 50 mM DTPA, total 70 μ1 sample plus 3.33% SSA, 17.5 μl Tris, 10 μl of mBBr; after 20 min in the dark, 7.5 μl glacial acetic acid. Reduced Plasma Samples: 170μ 50 mM DTPA, 20 μl 16 mM DTT in 50 mM DTPA, remainder as above; the samples were agitated at room temperature for 20 min. After reduction, mBBr was added and the derivatization proceeds as above.
Other Animal Tissues. 385 μl 50 mM DTPA, 140 μl sample. 20 μl mBBr, 40 μl Tris; 20 minutes in the dark, 15 μl glacial acetic acid. Standards for all sample types were prepared using identical derivatization procedures.
Recovery of Tissues from Syrian Hamsters. Animals were anesthetized by i.p. administration of xylazine and ketamine, decapitated, and exsanguinated. Blood was mixed with 50 μl EDTA (0.5M, pH 7). Plasma was recovered by centrifugation; one-half vol. 10% SSA/0.5 mM DTPA was added. Liver: one lobe was removed, rinsed with H2 O, blotted, weighed, and homogenized in 5% SSA (0.5 Mm DTPA) (5 vol/g tissue). Kidney: one kidney was removed and decapsulated and then processed as with liver.
BSO (6 mmol/kg) was given I.P. fasted animals 2 hours prior to giving GSH, GSH-ME, or GSH-DE (5 mmol/kg); values were determined 1 hour later. […] Each value represents determinations ±S.D. on 3-4 animals.

Human Erythrocytes [8] = conditions: for Thiol Levels, Total / Thiol Levels, thiol found GSH / Thiol Levels, thiol found GSH-DE / Thiol Levels, thiol found GSH-ME: erythrocyte suspension, 80 mM thiol added (one-third vol), 37° C.
Description: Analysis of Erythrocyte Thiol by DTNB. Cell supernatant (40 μl) was added to 1 ml of 6 mM DTNB (in 143 mM phosphate buffer, pH 7.5, containing 6.3 mM EDTA). The change in absorbance at 412 nm after 1 min was converted to a value for total thiol using a GSH standard curve. The GSH standard were prepared in a 1:2:2 mixture of PBS: 0.435M acetic acid: 10% SSA (containing 2 mM EDTA) ("RBC Mix").
as §1, §2
Whole blood was collected with EDTA or DTPA (0.5M, pH 7) as anticoagulant (0.4 ml/8-12 ml blood). Plasma and buffy coat were removed after centrifugation and the erythrocytes washed 3 times with 1-2 vol PBS/5 mM DTPA or EDTA. Packed erythrocytes were suspended in one-half vol. PBS. To each suspension was one-third vol. GSH, GSH-ME or GSH-DE (80 mM, pH 7). After incubation at 37° C. for the indicated times, aliquots were removed, washed (3-4×) with PBS/EDTA/DTPA, lysed with one volume 0.435M acetic acid, protein-precipitated with one volume 10% SSA/2 mM DTPA, and centrifuged to remove cell debris. Supernatants were derivatized for HPLC analysis as described in Materials and Methods.

[9] = test system: GSH diester α-esterase activity, rabbit plasma
[10] = test system: Human Peripheral Blood Mononuclear Cells; conditions: 6 ml whole blood + 3 ml 60 mM thiol, 30 min, 37° C.; PBM
Description: (§3) T Cell and PBM Lysates: 120 μl 4 mM DTPA, total 360 μl sample/4.31% SSA (containing 0.5 mM DTPA), 100 μl Tris, 5μ mBBr; 20 min. in the dark, 15 μl glacial acetic acid.
as §2
6 mls. whole blood (see Table 1) was mixed with 3 ml of 60 mM GSH, GSH-ME or GSH-DE at pH 7. After 30 min incubation at 37° C., PBM were isolated by Ficoll-Hypaque density gradient centrifugation. Cells were washed with 14 ml PBS (2-3) and lysed with 4.31% SSA/0.5 mM DTPA (400 μl). After centrifugation, the supernatants were derivatized for HPLC analysis.

[11] = test system: GSH diester α-esterase activity, sheep plasma
[12] = test system: esterase activity, mouse blood plasma
[13] = test system: Human Peripheral Blood Mononuclear Cells; conditions: for Thiol Levels, Total / Thiol Levels, thiol found GSH / Thiol Levels, thiol found GSH-DE / Thiol Levels, thiol found GSH-ME: isolated PBM, 0.3 ml 80 mM thiol to 0.9 ml cells, 37° C.
Description: as §3, §2
PBM were isolated from whole blood (see Tables 1 and 3) washed with PBS, and re-suspended in PBS. To 0.9 ml cell suspension (5-8×10^6 cells) was added 0.3 ml of 80 mM GSH, GSH-ME or GSH-DE at pH 7. After incubation at 37° C. for the indicated times, the cells were recovered by centrifugation, washed with 14 ml PBS (2×), and lysed by addition of 4.31% of SSA/0.5 mM DTPA and 2-3 freeze-thaw cycles. After centrifugation, supernatants were derivatized for HPLC analysis.

[14] = test system: GSH diester α-esterase activity, hamster plasma

SMILES: COC(=O)CNC(=O)C(CS)NC(=O)CCC(N)C(=O)OC (centres unmarked) [GSH dimethyl ester]
- toxicity (mice [1]): may be toxic

SMILES: CCOC(=O)CNC(=O)[C@H](CS)NC(=O)CC[C@H](N)C(=O)OCC [GSH-DE, glutathione diethyl ester]
- Thiol Levels Found, GSH (Human Erythrocytes [2]): 2.24 ± 0.45 mM
- Thiol Levels Found, GSH-DE (Human Erythrocytes [2]): 8.61 ± 0.31 mM
- Thiol Levels Found, GSH-ME (Human Erythrocytes [2]): 6.26 ± 0.50 mM
- Thiol Levels Found, Total (Human Erythrocytes [2]): 17.1 ± 1.24 mM
- GSH diester α-esterase activity in plasma [3]: also lack this esterase
- toxicity (mice [4]): toxicity was not observed
- conversion of GSH diethyl ester to GSH mono (glycyl) ester in blood plasma [5]: split rapidly to GSH-ME
- conversion of GSH diethyl ester to GSH mono (glycyl) ester in blood plasma ([5]; listed as GSH diethyl ester): rapidly converted to GSH mono (glycyl) ester
- toxicity (hamsters): toxicity was not observed
- splitting of GSH-DE to GSH-ME in plasma (GSH diester α-esterase activity) [6]: not split to GSH-ME in plasma
- splitting of GSH-DE to GSH-ME in plasma (GSH diester α-esterase activity) ([6]; listed as GSH diethyl ester): does not have detectable GSH diester α-esterase activity
- raising GSH levels in liver ([7]; hamster, comparison in words (Table 6)): more effective than GSH-ME
- Blood plasma levels of GSH ([7]; hamsters, 5 mmol/kg after BSO, 1 hour later): not affected
- Thiol Levels, Total (Human Erythrocytes [8]; 7 min): 9.99 ± 2.10 mM
- Thiol Levels, thiol found GSH (Human Erythrocytes [8]; 7 min): 1.74 ± 0.22 mM
- Thiol Levels, thiol found GSH-DE (Human Erythrocytes [8]; 7 min): 4.19 ± 1.47 mM
- Thiol Levels, thiol found GSH-ME (Human Erythrocytes [8]; 7 min): 4.01 ± 0.41 mM
- Thiol Levels, Total (Human Erythrocytes [8]; 45 min): 14.5 ± 2.0 mM
- Thiol Levels, thiol found GSH (Human Erythrocytes [8]; 45 min): 1.77 ± 0.22 mM
- Thiol Levels, thiol found GSH-DE (Human Erythrocytes [8]; 45 min): 3.61 ± 1.29 mM
- Thiol Levels, thiol found GSH-ME (Human Erythrocytes [8]; 45 min): 9.15 ± 0.49 mM
- Thiol Levels, Total (Human Erythrocytes [8]; 90 min): 20.1 ± 2.8 mM
- Thiol Levels, thiol found GSH (Human Erythrocytes [8]; 90 min): 2.02 ± 0.30 mM
- Thiol Levels, thiol found GSH-DE (Human Erythrocytes [8]; 90 min): 3.51 ± 1.28 mM
- Thiol Levels, thiol found GSH-ME (Human Erythrocytes [8]; 90 min): 14.6 ± 1.2 mM
- total RBC thiol levels (Human Erythrocytes [8]; summary of Table 1): about 20 mM
- GSH diester α-esterase activity in plasma [9]: also lack this esterase
- Thiol Levels Found, GSH [10]: 4.24 nmol/10^6 cells
- Thiol Levels Found, GSH-DE [10]: 0.501 nmol/10^6 cells
- Thiol Levels Found, GSH-ME [10]: 10.5 nmol/10^6 cells
- Thiol Levels Found, Total [10]: 15.2 nmol/10^6 cells
- GSH diester α-esterase activity in plasma [11]: also lack this esterase
- conversion of GSH diethyl ester to GSH mono (glycyl) ester in blood plasma [12]: split rapidly to GSH-ME
- conversion of GSH diethyl ester to GSH mono (glycyl) ester in blood plasma ([12]; listed as GSH diethyl ester): rapidly converted to GSH mono (glycyl) ester
- total thiols in human PBM ([13]; in 90 min, text summary of Table 4): 33 mM
- Thiol Levels, Total ([13]; 7 min, donor A): 12.1 ± 1.3 nmol/10^6 cells
- Thiol Levels, thiol found GSH ([13]; 7 min, donor A): 3.64 ± 0.32 nmol/10^6 cells
- Thiol Levels, thiol found GSH-DE ([13]; 7 min, donor A): 0.65 ± 0.016 nmol/10^6 cells
- Thiol Levels, thiol found GSH-ME ([13]; 7 min, donor A): 8.34 ± 0.95 nmol/10^6 cells
- Thiol Levels, Total ([13]; 45 min, donor B): 17.2 ± 1.4 nmol/10^6 cells
- Thiol Levels, thiol found GSH ([13]; 45 min, donor B): 2.82 ± 0.25 nmol/10^6 cells
- Thiol Levels, thiol found GSH-DE ([13]; 45 min, donor B): 0.320 ± 0.101 nmol/10^6 cells
- Thiol Levels, thiol found GSH-ME ([13]; 45 min, donor B): 14.1 ± 1.0 nmol/10^6 cells
- Thiol Levels, Total ([13]; 90 min, donor A): 33.2 ± 6.3 nmol/10^6 cells
- Thiol Levels, thiol found GSH ([13]; 90 min, donor A): 5.58 ± 1.05 nmol/10^6 cells
- Thiol Levels, thiol found GSH-DE ([13]; 90 min, donor A): 0.750 ± 0.141 nmol/10^6 cells
- Thiol Levels, thiol found GSH-ME ([13]; 90 min, donor A): 26.9 ± 5.1 nmol/10^6 cells
- splitting of GSH-DE to GSH-ME in plasma (GSH diester α-esterase activity) [14]: not split to GSH-ME in plasma
- splitting of GSH-DE to GSH-ME in plasma (GSH diester α-esterase activity) ([14]; listed as GSH diethyl ester): lacks detectable GSH diester α-esterase activity
